Measured values: patent US7169816B2, “4-bromo or 4-iodo phenylamino benzhydroxamic acid derivatives and their use as MEK inhibitors” (Warner-Lambert Company, priority 1997, dated 2007)
pIC50: −log10 of the molar value. Where two headings read alike, the source gives them in different places. Values belong to the compound of their own block, whether it stands above or below them.

Columns and labels:
[1] = biological target: p45MEK (GST-MEK) (Homo sapiens, UniProt Q02750); experiment: Cascade assay for inhibitors of the MAP kinase pathway (in vitro); assay type: biochemical
Method: Incorporation of ^32P into myelin basic protein (MBP) was assayed in the presence of a glutathione S-transferase fusion protein containing p44MAP kinase (GST-MAPK) and a glutathione S-transferase fusion protein containing p45MEK (GST-MEK). The assay solution contained 20 mM HEPES, pH 7.4, 10 mM MgCl2, 1 mM MnCl2, 1 mM EGTA, 50 μM [γ-^32P]ATP, 10 μg GST-MEK, 0.5 μg GST-MAPK and 40 μg MBP in a final volume of 100 μL. […] Compounds were assessed at 10 μM for ability to inhibit incorporation of ^32P.
To ascertain whether compounds were inhibiting GST-MEK or GST MAPK, two additional protocols were employed. In the first protocol, compounds were added to tubes containing GST-MEK, followed by addition of GST-MAPK, MBP and [γ-^32P]ATP. In the second protocol, compounds were added to tubes containing both GST-MEK and GST-MAPK, followed by MBP and [γ-^32P]ATP.

[2] = test system: activation of MAP kinase in whole cells; experiment: Whole cell MAP kinase assay (in vivo, cell culture); assay type: cell-based
Method: To determine if compounds were able to block activation of MAP kinase in whole cells, the following protocol was used: Cells were plated in multi-well plates and grown to confluence. Cells were then serum-deprived overnight. Cells were exposed to the desired concentrations of compound or vehicle (DMSO) for 30 minutes, followed by addition of a growth factor, eg, PDGF (100 ng/mL). After a 5-minute treatment with the growth factor, cells were washed with PBS, then lysed in a buffer consisting of 70 mM NaCl, 10 mM HEPES (pH 7.4), 50 mM glycerol phosphate, and 1% Triton X-100. Lysates were clarified by centrifugation at 13,000×g for 10 minutes. Five micrograms of the resulting supernatants were incubated with 10 μg microtubule associated protein-2 (Map2) for 15 minutes at 30° C. in a final volume of 25 μL containing 50 mM Tris (pH 7.4), 10 mM MgCl2, 2 mM EGTA and 30 μM [γ-^32P]ATP. Reactions were terminated by addition of Laemmli sample buffer. Phosphorylated Map2 was resolved on 7.5% acrylamide gels and incorporated radioactivity determined by autoradiography and subsequent excision of the bands followed by scintillation counting.

[3] = test system: murine colon tumor, C26/clone 10; experiment: Murine colon tumor C26/clone 10 implanted subcutaneously in mice; assay type: in vivo, Male CD2F1 mice; settings: for Change in Body Weight / Non-Specific Deaths: Days 1 through 14
Method: Male CD2F1 mice (NCI: Charles River, Kingston) were implanted subcutaneously with tumor fragments (approximately 30 mg) in the region of the right axilla on Day 0. […] The vehicle for the test compound, and for control animals, was 10% EtOH/10% Cremophor-EL (Sigma)/80% H2O, pH 5.0. Tumor volumes were recorded three times per week by measuring the length and width of the individual tumors and calculating mass in milligrams according to the formula (a×b^2)/2, where a and b are the length and width of the tumor. Percent treated/control (T/C) was calculated based on the ratio of the median tumor volume of the treated tumors compared with the median tumor volume of control animals on specified measurement days.

Compound: 2-(4-bromo-2-methyl-phenylamino)-4-fluoro-N-hydroxy-benzamide [Example 3]
- pIC50 [1]: 7.14
- pIC50 ([2]; cell culture): 5.52

Compound: 4-Fluoro-N-hydroxy-2-(4-cluoro-2-methyl-phenylamino)-benzamide [Example 11]
- pIC50 [1]: 6.48
- pIC50 ([2]; cell culture): 6.30

Compound: 5-Bromo-N-cyclopropylmethoxy-3,4-difluoro-2-(4-iodo-2-methyl-phenylamino) [Example 58]
- pIC50 [1]: 7.74
- pIC50 ([2]; cell culture): 7.85

Compound: Cc1cc(I)ccc1Nc1cc(F)ccc1C(=O)NO [Example 1, 4-Fluoro-N-hydroxy-2-(4-iodo-2-methyl-phenylamino)-benzamide]
- pIC50 [1]: 8.15
- melting point: 61 to 75 °C

Compound: Cc1cc(I)ccc1Nc1c(C(=O)NO)cc(Br)c(F)c1F [Example 2, 5-Bromo-3,4-difluoro-N-hydroxy-2-(4-iodo-2-methyl-phenylamino)-benzamide]
- pIC50 [1]: 8.52
- melting point: 80 to 90 °C

Compound: O=C(NO)c1ccc([N+](=O)[O-])cc1Nc1ccc(I)cc1Cl [Example 82, 2-(2-Chloro-4-iodo-phenylamino)-N-hydroxy-4-nitro-benzamide]
- pIC50 [1]: 8.52
- pIC50 [2]: 7.40

Compound: O=C(NOCC1CC1)c1ccc(F)c(F)c1Nc1ccc(I)cc1Cl [Example 95, 3,4-Difluoro-2-(2-chloro-4-iodo-phenylamino)-N-cyclopropylmethoxy-benzamide]
- % Inhibition ([3]; IP, 48 mg/kg/day, Day 15): 59%
- Change in Body Weight ([3]; IP, 48 mg/kg/day): +3 grams
- Non-Specific Deaths ([3]; IP, 48 mg/kg/day): 0/6
- % Inhibition ([3]; IP, 77 mg/kg/day, Day 15): 98%
- Change in Body Weight ([3]; IP, 77 mg/kg/day): +2 grams
- Non-Specific Deaths ([3]; IP, 77 mg/kg/day): 2/5
- % Inhibition ([3]; IP, 124 mg/kg/day, Day 15): 96%
- Change in Body Weight ([3]; IP, 124 mg/kg/day): +3 grams
- Non-Specific Deaths ([3]; IP, 124 mg/kg/day): 1/6
- % Inhibition ([3]; IP, 200 mg/kg/day, Day 15): 100%
- Change in Body Weight ([3]; IP, 200 mg/kg/day): +2 grams
- Non-Specific Deaths ([3]; IP, 200 mg/kg/day): 1/6
- % Inhibition ([3]; PO, 71 mg/kg/day, Day 17): 64%
- Change in Body Weight ([3]; PO, 71 mg/kg/day): +2 grams
- Non-Specific Deaths ([3]; PO, 71 mg/kg/day): 0/6
- % Inhibition ([3]; PO, 115 mg/kg/day, Day 17): 79%
- Change in Body Weight ([3]; PO, 115 mg/kg/day): +2 grams
- Non-Specific Deaths ([3]; PO, 115 mg/kg/day): 1/6
- % Inhibition ([3]; PO, 186 mg/kg/day, Day 17): 75%
- Change in Body Weight ([3]; PO, 186 mg/kg/day): +2 grams
- Non-Specific Deaths ([3]; PO, 186 mg/kg/day): 0/6
- % Inhibition ([3]; PO, 300 mg/kg/day, Day 17): 83%
- Change in Body Weight ([3]; PO, 300 mg/kg/day): +2 grams
- Non-Specific Deaths ([3]; PO, 300 mg/kg/day): 0/6

Compound: Cc1cc(I)ccc1Nc1c(C(=O)NOCC(C)C)cc(Br)c(F)c1F [Example 99, 5-Bromo-3,4-difluoro-2-(4-iodo-2-methyl-phenylamino)-N-isobutoxy-benzamide]
- pIC50 [1]: 7.74
- pIC50 [2]: 6.30

Now from value to compound:

- pIC50 [1]: 9.00
- pIC50 [2]: 8.30
Compound: Cc1cc(I)ccc1Nc1c(C(=O)NO)ccc(F)c1F [Example 84, 3,4-Difluoro-N-hydroxy-2-(4-iodo-2-methyl-phenylamino)-benzamide]

- pIC50 [1]: 8.30
- pIC50 [2]: 6.52
Compound: O=C(NOCC1CCC1)c1ccc(F)c(F)c1Nc1ccc(I)cc1Cl [Example 89, 3,4-Difluoro-2-(2-chloro-4-iodo-phenylamino)-N-cyclobutylmethoxy-benzamide]

- pIC50 [1]: 8.00
- pIC50 [2]: 7.30
Compound: O=C(NO)c1cc(Br)c(F)c(F)c1Nc1ccc(I)cc1Cl [Example 93, 5-Bromo-2-(2-chloro-4-iodo-phenylamino)-3,4-difluoro-N-hydroxy-benzamide]

- pIC50 [1]: 7.59
- pIC50 [2]: < 6.00
Compound: Cc1cc(I)ccc1Nc1c(C(=O)NOCC2CCCCC2)cc(Br)c(F)c1F [Example 100, 5-Bromo-N-cyclohexylmethoxy-3,4-difluoro-2-(4-iodo-2-methyl-phenylamino)-benzamide]

- pIC50 [1]: 8.10
- pIC50 [2]: < 6.00
Compound: Cc1cc(I)ccc1Nc1c(C(=O)NOCC2CCCC2)cc(Br)c(F)c1F [Example 101, 5-Bromo-N-cyclopentylmethoxy-3,4-difluoro-2-(4-iodo-2-methyl-phenylamino)-benzamide]

- pIC50 [1]: 8.40
- pIC50 [2]: 6.70
Compound: Cc1cc(I)ccc1Nc1c(C(=O)NOCC2CCC2)cc(Br)c(F)c1F [Example 102, 5-Bromo-N-cyclobutylmethoxy-3,4-difluoro-2-(4-iodo-2-methyl-phenylamino)-benzamide]
